Assay results taken from patent US5068247A, “2-aminopentanoic acid compounds and their use as immunosuppressants” (priority 1989, dated 1991).
In brackets after ≈: the same amount, converted by molar mass. Structures can show the parent of a compound that is named as a salt.

What was measured:
[1] = tested on: IL-2 production in PHA-stimulated mouse spleen cells; experiment: suppression of IL-2 production in PHA-stimulated mouse spleen cells; type: cell-based
Method: (§1) The suppression of IL-2 and IL-3 production in the mitogen-stimulated mouse spleen cells was examined as follows:
(§2) The spleen was resected from 5- to 8-week-old male C3H/HeN mice, and a single cell suspension of spleen cells was prepared by using the RPMI1640 culture medium. After hemolytic treatment, the concentration of the suspension was adjusted to 10^7 cells/ml by using the RPMI1640 culture medium supplemented with 20% FCS, to which 10 μg/ml of phytohemagglutinin (PHA) was added as mitogen. […] After termination of culture, the supernatant was collected and used as the culture supernatant of PHA-stimulated mouse spleen cells.
The IL-2 activity in the culture supernatant of PHA-stimulated mouse spleen cells was assayed as follows:
IL-2 dependent mouse cell line CTLL-2 cells were suspended in the RPMI1640 culture medium supplemented with 30% FCS to the concentration of 2×10^5 cells/ml. One hundred μl of the cell suspension and 100 μl of the two-fold serial dilution of the culture supernatant of PHA-stimulated mouse spleen cells were added to a 96-well flat-bottomed microtest plate. […] The IL-2 activity is expressed in U/ml as the dilution at which the absorbancy measured by MTT method was 50% of the maximum.

[2] = tested on: IL-3 production in PHA-stimulated mouse spleen cells; experiment: suppression of IL-3 production in PHA-stimulated mouse spleen cells; type: cell-based
Method: as §1, §2
The IL-3 activity was assayed as follows:
IL-3-dependent mouse cell line FDC-P2 cells were suspended in the RPMI1640 culture medium supplemented with 10% FCS to the concentration of 2×10^5 cells/ml. One hundred μl of the cell suspension and 100 μl of the two-fold serial dilution of the culture supernatant of PHA-stimulated mouse spleen cells described above were added to a 96-well flat-bottomed microtest plate. […] The IL-3 activity is expressed in U/ml as the dilution at which the absorbancy measured by MTT method was 50% of the maximum.

[3] = tested on: mouse allogenic MLR (BALB/c mouse spleen cells stimulated with C57BL/6 mouse spleen cells); experiment: mouse allogenic mixed lymphocyte reaction (MLR), 3H-thymidine uptake; type: cell-based
Method: The immunosuppressive activity of the compounds was assayed on the basis of mouse allogenic mixed lymphocyte reaction (hereinafter sometimes abbreviated as MLR). Mouse allogenic MRL was carried out using a mixed culture of BALB/c mouse (H-2^d) spleen cells as the responder cells and mitomycin C-treated C57BL/6 ([…]) mouse spleen cells as the stimulator cells in equal amounts.
The responder cells were prepared as follows:
The spleen was resected from 5- to 6-week-old BALB/c mice, and single cell suspension of spleen cells was prepared by using the RPMI1640 culture medium (containing 60 μg/ml of kanamycin sulfate, 2 mM of L-glutamine, 10 mM of N-2-hydroxyethylpiperazine-N'-2-ethanesulphonate (HEPES) and 0.1% sodium hydrogencarbonate) to which heat-inactivated fetal calf serum (hereinafter sometimes abbreviated as FCS) had been added to 5%. After hemolytic treatment, the cell suspension was adjusted to a concentration of 10^7 cells/ml with the RPMI1640 culture medium supplemented with 10^-4 M 2-mercapto-ethanol and 20% FCS, and was used as the responder cell suspension.
The stimulator cells were prepared as follows: The spleen was resected from 5- to 6-week-old male C57BL/6 mice, and a single cell suspension of spleen cells was prepared by using the RPMI1640 culture medium. After hemolytic treatment, the cells were treated with 40 μg/ml of mitomycin C at 37° C. for 60 minutes. After washing three times, the cell suspension was adjusted to a concentration of 10^7 cells/ml with the RPMI1640 culture medium supplemented with 10^-4 M 2-mercapto-ethanol and 20% FCS, and was used as the stimulator cell suspension.
The blastogenesis of lymphocytes was assayed using ^3 H-thymidine uptake as an index. That is, after termination of culture, 18.5 KBq/well of ^3 H-thymidine was added thereto and the suspension was cultured for 4 hours. Cells were harvested by a cell-harvester, and the radioactivity incorporated into the cells was determined by a liquid scintillation counter, which was used as an index of blastogenesis of lymphocytes in the mouse allogenic MLR. The suppression of the mouse allogenic MLR was evaluated by calculating the percent suppression by the following formula.
The test substance dissolved in methanol was diluted with the RPMI1640 culture medium and put to use.

[4] = tested on: allo-specific cytotoxic antibody in serum of EL4-immunized BALB/c mice; experiment: suppression of allo-specific cytotoxic antibody production induced by allogenic cell immunization of mouse; type: in vivo
Method: Male 5- to 7-week-old BALB/c mice were immunized with leukemia cell EL4 derived from C57BL/6 mice (10^7 cells/mouse, intraperitoneal administration) in the same way as in Experiment Example 9, and the […] Nine to ten days after immunization, a serum was collected from the mice. Fifty μl of the two-fold serial dilution of the serum, 50 μl of a guinea pig complement and EL4 cell suspension labelled with ^51 Cr as the target cell (5×10^4 cells/ml, 100 μl) were together added to a 96-well microtest plate. After incubation at 37° C. for 1 hour, the amount of ^51 Cr released in the supernatant was measured, and the complement-dependent cytotoxicity was calculated by the following formula. [formula]
The value of allo-specific cytotoxic antibody determined as above was expressed by the titer calculated on the basis of the concentration at which the releasing amount of ^51 Cr was 50% of that of ^51 Cr-labelled target cells treated with 0.1 N HCl.

[5] = tested on: allo-reactive cytotoxic T cells in spleen of EL4-immunized BALB/c mice; experiment: suppression of allo-reactive cytotoxic T cells induced by immunization of mouse with allogenic cells; type: in vivo; settings: Table 9F
Method: Male 5- to 7-week-old BALB/c mice (H-2^d) were immunized with leukemia cell EL4 derived from C57BL/6 mice (H-2^b) (10^7 cells/mouse, intraperitoneal administration), and the test substance was administered intraperitoneally 5 times at the doses of 0.001 to 3 mg/kg/day or orally at the doses of 0.3 to 10 mg/kg/day from the day of immunization. Nine to ten days after immunization, the spleen was resected from the mice to prepare a single cell suspension and the suspension was used as effector cell suspension. The ^51 Cr-release assay was carried out in the same way as in Experiment Example 3, using EL4 cells as the target cells to measure the cytotoxic activity.
The activity of allo-reactive cytotoxic T cell is indicated by lytic unit (LU) per spleen. One lytic unit (LU) is defined as the number of effector cells required to cause 25% lysis of 5×10^3 target cells. At the same time, the body weight of mouse and number of spleen cells were also determined.

[6] = Mus musculus, 24 h, 0.001 μg/ml, read-out: Suppression
[7] = Mus musculus, 24 h, 0.01 μg/ml, read-out: Suppression
[8] = Mus musculus, 24 h, 0.1 μg/ml, read-out: Suppression
[9] = Mus musculus, 24 h, 1 μg/ml, read-out: Suppression
[10] = 0.003 mg/kg/day iv × 9, Table 10F
[11] = 0.01 mg/kg/day iv × 9, Table 10F
[12] = 0.03 mg/kg/day ip × 5, Table 10E
[13] = 0.03 mg/kg/day iv × 9, Table 10F
[14] = 0.1 mg/kg/day ip × 5, Table 10E
[15] = 0.1 mg/kg/day iv × 9, Table 10F
[16] = 0.3 mg/kg/day ip × 5, Table 10E
[17] = 0.3 mg/kg/day iv × 9, Table 10F

SMILES: N[C@](CO)(C(=O)O)[C@@H](O)[C@H](O)CCO [Example 6]
- IL-2 activity ([1]; 0.001 μg/ml): 12.6 U/ml
- IL-2 activity ([1]; 0.01 μg/ml): 10.2 U/ml
- IL-2 activity ([1]; 0.1 μg/ml): 9.5 U/ml
- IL-2 activity ([1]; 1 μg/ml): 8.3 U/ml
- inhibition at 0.001 µg/mL [1, 6]: 6.7%
- inhibition at 0.01 µg/mL [1, 7]: 24.4%
- inhibition at 0.1 µg/mL [1, 8]: 29.6%
- inhibition at 1 µg/mL [1, 9]: 38.5%
- IL-3 activity ([2]; 0.001 μg/ml): 23.8 U/ml
- IL-3 activity ([2]; 0.01 μg/ml): 23.4 U/ml
- IL-3 activity ([2]; 0.1 μg/ml): 23.3 U/ml
- IL-3 activity ([2]; 1 μg/ml): 20.0 U/ml
- inhibition at 0.001 µg/mL [2, 6]: 2.9%
- inhibition at 0.01 µg/mL [2, 7]: 4.5%
- inhibition at 0.1 µg/mL [2, 8]: 4.9%
- inhibition at 1 µg/mL [2, 9]: 18.4%
- 3H-thymidine uptake ([3]; 0.0001 μg/ml, Table 1A): 16771 cpm
- 3H-thymidine uptake ([3]; 0.001 μg/ml, Table 1A): 13692 cpm
- 3H-thymidine uptake ([3]; 0.01 μg/ml, Table 1A): 13806 cpm
- 3H-thymidine uptake ([3]; 0.1 μg/ml, Table 1A): 14508 cpm
- 3H-thymidine uptake ([3]; 1 μg/ml, Table 1A): 7545 cpm
- inhibition at 0.0001 µg/mL ([3]; Mus musculus, Lymphocyte, 0.0001 μg/ml, Table 1A, read-out: Suppression): 9.9%
- inhibition at 0.001 µg/mL ([3]; Mus musculus, Lymphocyte, 0.001 μg/ml, Table 1A, read-out: Suppression): 18.5%
- inhibition at 0.01 µg/mL ([3]; Mus musculus, Lymphocyte, 0.01 μg/ml, Table 1A, read-out: Suppression): 27.5%
- inhibition at 0.1 µg/mL ([3]; Mus musculus, Lymphocyte, 0.1 μg/ml, Table 1A, read-out: Suppression): 23.4%
- inhibition at 1 µg/mL ([3]; Mus musculus, Lymphocyte, 1 μg/ml, Table 1A, read-out: Suppression): 64.8%
- IC50 ([3]; Mus musculus, Lymphocyte, read-out: 50%-inhibition concentration (IC50) in mouse allogenic MLR): 0.045 µg/mL (≈ 0.215 µM)

SMILES: CCCCCCCCCCCCC/C=C/C[C@@H](O)[C@H](O)[C@@](N)(CO)C(=O)O [potassium salt of compound of Example 5]
- 3H-thymidine uptake ([3]; 0.0001 μg/ml, Table 1B): 5622 ± 898 cpm
- Suppression ([3]; 0.0001 μg/ml, Table 1B): 0%
- 3H-thymidine uptake ([3]; 0.001 μg/ml, Table 1B): 4984 ± 3755 cpm
- Suppression ([3]; 0.001 μg/ml, Table 1B): 7.5%
- 3H-thymidine uptake ([3]; 0.01 μg/ml, Table 1B): 1324 ± 16 cpm
- Suppression ([3]; 0.01 μg/ml, Table 1B): 85.5%
- 3H-thymidine uptake ([3]; 0.1 μg/ml, Table 1B): 787 ± 257 cpm
- Suppression ([3]; 0.1 μg/ml, Table 1B): 97.0%
- 3H-thymidine uptake ([3]; 1 μg/ml, Table 1B): 783 ± 28 cpm
- Suppression ([3]; 1 μg/ml, Table 1B): 97.1%

SMILES: CCCCCCCCCCCCC/C=C/C[C@@H](O)[C@H](O)[C@@](N)(CO)C(=O)O [sodium salt of the compound of Example 5]
- Allogenic cell-specific antibody in serum, suppression [4, 10]: 6.0%
- Allogenic cell-specific antibody in serum, titer [4, 10]: 236 ± 76
- Allogenic cell-specific antibody in serum, suppression [4, 11]: 39.4%
- Allogenic cell-specific antibody in serum, titer [4, 11]: 152 ± 27
- Allogenic cell-specific antibody in serum, suppression [4, 12]: 50.3%
- Allogenic cell-specific antibody in serum, titer [4, 12]: 94 ± 14
- Allogenic cell-specific antibody in serum, suppression [4, 13]: 68.5%
- Allogenic cell-specific antibody in serum, titer [4, 13]: 79 ± 50
- Allogenic cell-specific antibody in serum, suppression [4, 14]: 73.5%
- Allogenic cell-specific antibody in serum, titer [4, 14]: 50 ± 4
- Allogenic cell-specific antibody in serum, suppression [4, 15]: 84.1%
- Allogenic cell-specific antibody in serum, titer [4, 15]: 40 ± 23
- Allogenic cell-specific antibody in serum, suppression [4, 16]: 88.9%
- Allogenic cell-specific antibody in serum, titer [4, 16]: 21 ± 8
- Allogenic cell-specific antibody in serum, suppression [4, 17]: 81.7%
- Allogenic cell-specific antibody in serum, titer [4, 17]: 46 ± 11
- production of allo-specific cytotoxic antibody, sodium salt relative to the compound of Example 5 (in words) ([4]; Table 10E): suppressive activity almost equivalent to that of the compound of Example 5 other than sodium salt
- induction of allo-reactive cytotoxic T cells, sodium salt relative to the compound of Example 5 (in words) [5]: suppressive activity almost equivalent to that of the compound of Example 5 other than sodium salt
- suppressive activity of the sodium salt relative to that of the compound of Example 5 ([3]; Table 1B): almost the equivalent suppressive activity
